{"source": "patent US7097855B1", "about": "“Transdermal thermal polymerization” (Massachusetts Institute of Technology, priority 2000, dated 2006)", "origin": "cited, not measured here", "key": {"[1]": {"conditions": "at 20° C."}, "[2]": {"tested_on": "rat"}}, "data": [{"compound": "CC(C)(N=NC(C)(C)C1=NCCN1)C1=NCCN1.Cl.Cl", "note": "[AZODIA HCl, 2,2′-azobis-(N,N′-dimethyleneisobutyramidine) dihydrochloride]", "values": [{"measurement": "water solubility", "setting": "[1]", "result": 35.2, "unit": "g/100 g solvent"}, {"measurement": "LD50 (oral, rat), female", "setting": "[2]; female", "result": 2800, "unit": "mg/kg"}, {"measurement": "LD50 (oral, rat), male", "setting": "[2]; male", "result": 3200, "unit": "mg/kg"}]}]}
